Data from patent US8846933B2, “N-link hydroxamic acid derivatives useful as antibacterial agents” (Pfizer Inc., priority 2009, dated 2014).

Legend:
[1] = test system: Escherichia coli EC-1: VOGEL, mouse virulent; test: MIC determination (CLSI), strain EC-1; type: cell-based; settings: strain EC-1; unit assumed
Method in brief: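 The mouse-virulent VOGEL isolate of E. coli, EC-1, served as test organism. Minimum inhibitory concentration was measured by CLSI dilution methodology (M7-A7; M100-S18 standards).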

[2] = test system: Pseudomonas aeruginosa UI-18: Wild-type (PA-7); test: MIC determination (CLSI), strain PA-7; type: cell-based; settings: strain PA-7; unit assumed
Method in brief: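 MIC determined by broth dilution per CLSI M7-A7 guidelines with M100-S18 interpretive standards. Test organism: wild-type Pseudomonas aeruginosa UI-18, designated PA-7.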

CNC(=O)c1ccc(-c2ccn(CCC(C)(C(=O)NO)S(C)(=O)=O)c(=O)c2)cc1 (stereo not drawn) [Example 188, 4-{1-[4-(hydroxyamino)-3-methyl-3-(methylsulfonyl)-4-oxobutyl]-2-oxo-1,2-dihydropyridin-4-yl}-N-methylbenzamide]
EC-1 (MIC) [1]: > 64 µg/mL
PA-7 (MIC) [2]: > 64 µg/mL

CC(CCn1ccc(-c2cccc3cccnc23)cc1=O)(C(=O)NO)S(C)(=O)=O (stereo not drawn) [Example 189, N-hydroxy-2-methyl-2-(methylsulfonyl)-4-(2-oxo-4-quinolin-8-ylpyridin-1(2H)-yl)butanamide]
EC-1 (MIC) [1]: > 64 µg/mL
PA-7 (MIC) [2]: 64 µg/mL

Cc1ccc(-c2ccn(CCC(C)(C(=O)NO)S(C)(=O)=O)c(=O)c2)cc1 (stereo not drawn) [Example 190, N-hydroxy-2-methyl-4-[4-(4-methylphenyl)-2-oxopyridin-1(2H)-yl]-2-(methylsulfonyl)butanamide]
EC-1 (MIC) [1]: 1 µg/mL
PA-7 (MIC) [2]: 1 µg/mL

COCc1ccccc1-c1ccn(CCC(C)(C(=O)NO)S(C)(=O)=O)c(=O)c1 (stereo not drawn) [Example 191, N-hydroxy-4-{4-[2-(methoxymethyl)phenyl]-2-oxopyridin-1(2H)-yl}-2-methyl-2-(methylsulfonyl)butanamide]
EC-1 (MIC) [1]: > 64 µg/mL
PA-7 (MIC) [2]: > 64 µg/mL

CC(CCn1ccc(-c2ccc(F)cc2)cc1=O)(C(=O)NO)S(C)(=O)=O (stereo not drawn) [Example 192, 4-[4-(4-fluorophenyl)-2-oxopyridin-1(2H)-yl]-N-hydroxy-2-methyl-2-(methylsulfonyl)butanamide]
EC-1 (MIC) [1]: 8 µg/mL
PA-7 (MIC) [2]: 2 µg/mL

Cc1cc(-c2ccn(CCC(C)(C(=O)NO)S(C)(=O)=O)c(=O)c2)ccc1F (stereo not drawn) [Example 193, 4-[4-(4-fluoro-3-methylphenyl)-2-oxopyridin-1(2H)-yl]-N-hydroxy-2-methyl-2-(methylsulfonyl)butanamide]
EC-1 (MIC) [1]: 2 µg/mL
PA-7 (MIC) [2]: 2 µg/mL

Cn1c(C#N)ccc1-c1ccn(CCC(C)(C(=O)NO)S(C)(=O)=O)c(=O)c1 (stereo not drawn) [Example 194, 4-[4-(5-cyano-1-methyl-1H-pyrrol-2-yl)-2-oxopyridin-1(2H)-yl]-N-hydroxy-2-methyl-2-(methylsulfonyl)butanamide]
EC-1 (MIC) [1]: > 64 µg/mL
PA-7 (MIC) [2]: > 64 µg/mL

COc1ccc(OC)c(-c2ccn(CCC(C)(C(=O)NO)S(C)(=O)=O)c(=O)c2)c1 (stereo not drawn) [Example 195, 4-[4-(2,5-dimethoxyphenyl)-2-oxopyridin-1(2H)-yl]-N-hydroxy-2-methyl-2-(methylsulfonyl)butanamide]
EC-1 (MIC) [1]: > 64 µg/mL
PA-7 (MIC) [2]: > 64 µg/mL

CC(CCn1ccc(-c2cc(F)ccc2F)cc1=O)(C(=O)NO)S(C)(=O)=O (stereo not drawn) [Example 196, 4-[4-(2,5-difluorophenyl)-2-oxopyridin-1(2H)-yl]-N-hydroxy-2-methyl-2-(methylsulfonyl)butanamide]
EC-1 (MIC) [1]: 8 µg/mL
PA-7 (MIC) [2]: 4 µg/mL

CC(CCn1ccc(-c2ccc(-c3ccccc3)c(F)c2)cc1=O)(C(=O)NO)S(C)(=O)=O (stereo not drawn) [Example 197, 4-[4-(2-fluorobiphenyl-4-yl)-2-oxopyridin-1(2H)-yl]-N-hydroxy-2-methyl-2-(methylsulfonyl)butanamide]
EC-1 (MIC) [1]: 0.25 µg/mL
PA-7 (MIC) [2]: 2 µg/mL

CC(CCn1ccc(-c2ccc(C#N)cc2)cc1=O)(C(=O)NO)S(C)(=O)=O (stereo not drawn) [Example 198, 4-[4-(4-cyanophenyl)-2-oxopyridin-1(2H)-yl]-N-hydroxy-2-methyl-2-(methylsulfonyl)butanamide]
EC-1 (MIC) [1]: 16 µg/mL
PA-7 (MIC) [2]: 8 µg/mL

CCCCc1ccc(-c2ccn(CCC(C)(C(=O)NO)S(C)(=O)=O)c(=O)c2)cc1 (stereo not drawn) [Example 199, 4-[4-(4-butylphenyl)-2-oxopyridin-1(2H)-yl]-N-hydroxy-2-methyl-2-(methylsulfonyl)butanamide]
EC-1 (MIC) [1]: 0.125 µg/mL
PA-7 (MIC) [2]: 2 µg/mL

COc1ccc(-c2ccn(CCC(C)(C(=O)NO)S(C)(=O)=O)c(=O)c2)c(C)n1 (stereo not drawn) [Example 200, N-hydroxy-4-(6-methoxy-2-methyl-2′-oxo-3,4′-bipyridin-1′(2′H)-yl)-2-methyl-2-(methylsulfonyl)butanamide]
EC-1 (MIC) [1]: 32 µg/mL
PA-7 (MIC) [2]: 16 µg/mL

Cc1c(-c2ccn(CCC(C)(C(=O)NO)S(C)(=O)=O)c(=O)c2)cnn1-c1ccccc1 (stereo not drawn) [Example 203, N-hydroxy-2-methyl-4-[4-(5-methyl-1-phenyl-1H-pyrazol-4-yl)-2-oxopyridin-1(2H)-yl]-2-(methylsulfonyl)butanamide]
EC-1 (MIC) [1]: 64 µg/mL
PA-7 (MIC) [2]: > 64 µg/mL

CC(CCn1ccc(-c2cc(O)ccc2Cl)cc1=O)(C(=O)NO)S(C)(=O)=O (stereo not drawn) [Example 204, 4-[4-(2-chloro-5-hydroxyphenyl)-2-oxopyridin-1(2H)-yl]-N-hydroxy-2-methyl-2-(methylsulfonyl)butanamide]
EC-1 (MIC) [1]: 64 µg/mL
PA-7 (MIC) [2]: > 64 µg/mL

CCOc1ncccc1-c1ccn(CCC(C)(C(=O)NO)S(C)(=O)=O)c(=O)c1 (stereo not drawn) [Example 205, 4-(2-ethoxy-2′-oxo-3,4′-bipyridin-1′(2′H)-yl)-N-hydroxy-2-methyl-2-(methylsulfonyl)butanamide]
EC-1 (MIC) [1]: > 64 µg/mL
PA-7 (MIC) [2]: > 64 µg/mL

COc1cccc(-c2ccn(CCC(C)(C(=O)NO)S(C)(=O)=O)c(=O)c2)c1 (stereo not drawn) [Example 206, N-hydroxy-4-[4-(3-methoxyphenyl)-2-oxopyridin-1(2H)-yl]-2-methyl-2-(methylsulfonyl)butanamide]
EC-1 (MIC) [1]: 4 µg/mL
PA-7 (MIC) [2]: 4 µg/mL

CC(CCn1ccc(-c2ccc(C#N)c(F)c2)cc1=O)(C(=O)NO)S(C)(=O)=O (stereo not drawn) [Example 207, 4-[4-(4-cyano-3-fluorophenyl)-2-oxopyridin-1(2H)-yl]-N-hydroxy-2-methyl-2-(methylsulfonyl)butanamide]
EC-1 (MIC) [1]: 16 µg/mL
PA-7 (MIC) [2]: 16 µg/mL

COc1cc(-c2ccn(CCC(C)(C(=O)NO)S(C)(=O)=O)c(=O)c2)ccc1F (stereo not drawn) [Example 208, 4-[4-(4-fluoro-3-methoxyphenyl)-2-oxopyridin-1(2H)-yl]-N-hydroxy-2-methyl-2-(methylsulfonyl)butanamide]
EC-1 (MIC) [1]: 32 µg/mL
PA-7 (MIC) [2]: 16 µg/mL

Cc1cc(-c2ccn(CCC(C)(C(=O)NO)S(C)(=O)=O)c(=O)c2)ccn1 (stereo not drawn) [Example 209, N-hydroxy-2-methyl-4-(2′-methyl-2-oxo-4,4′-bipyridin-1(2H)-yl)-2-(methylsulfonyl)butanamide]
EC-1 (MIC) [1]: 64 µg/mL
PA-7 (MIC) [2]: 32 µg/mL

CC(CCn1ccc(-c2cccc(O)c2)cc1=O)(C(=O)NO)S(C)(=O)=O (stereo not drawn) [Example 210, N-hydroxy-4-[4-(3-hydroxyphenyl)-2-oxopyridin-1(2H)-yl]-2-methyl-2-(methylsulfonyl)butanamide]
EC-1 (MIC) [1]: > 64 µg/mL
PA-7 (MIC) [2]: > 64 µg/mL

CC(C)(C)NC(=O)c1cc(-c2ccn(CCC(C)(C(=O)NO)S(C)(=O)=O)c(=O)c2)ccc1F (stereo not drawn) [Example 211, N-tert-butyl-2-fluoro-5-{1-[4-(hydroxyamino)-3-methyl-3-(methylsulfonyl)-4-oxobutyl]-2-oxo-1,2-dihydropyridin-4-yl}benzamide]
EC-1 (MIC) [1]: 64 µg/mL
PA-7 (MIC) [2]: > 64 µg/mL

COc1cc(-c2ccn(CCC(C)(C(=O)NO)S(C)(=O)=O)c(=O)c2)cc(OC)c1OC (stereo not drawn) [Example 212, N-hydroxy-2-methyl-2-(methylsulfonyl)-4-[2-oxo-4-(3,4,5-trimethoxyphenyl)pyridin-1(2H)-yl]butanamide]
EC-1 (MIC) [1]: > 64 µg/mL
PA-7 (MIC) [2]: > 64 µg/mL

CC(CCn1ccc(-c2ccccc2O)cc1=O)(C(=O)NO)S(C)(=O)=O (stereo not drawn) [Example 213, N-hydroxy-4-[4-(2-hydroxyphenyl)-2-oxopyridin-1(2H)-yl]-2-methyl-2-(methylsulfonyl)butanamide]
EC-1 (MIC) [1]: > 64 µg/mL
PA-7 (MIC) [2]: > 64 µg/mL
